Experimental data as given in paper PMC9865501, “Design and Synthesis of Scopoletin Sulfonate Derivatives as Potential Insecticidal Agents” (Molecules, 2023).
Values after ≈ are worked out from the molar mass of the structure shown. Where two headings read alike, the source gives them in different places.

Tests used:
[1] = tested on: T. cinnabarinus; test: Acaricidal activity against T. cinnabarinus (leaf spray on broad bean, 72 h); type: in vivo, Tetranychus cinnabarinus; conditions: for LC50: Tetranychus cinnabarinus, 72 h; for acaricidal toxicity relative to compound 5: compared with compound 5
Experimental: An acaricidal activity assay of the test compounds against mites was conducted according to procedures outlined in the literature. […] The stock solution was then diluted to a series of working concentrations with 1% Tween 80 to obtain the test solutions. Subsequently, the leaves of two-leaf-stage broad beans were inoculated with 150–200 female adult T. cinnabarinus mites and reared in a greenhouse (26 ± 1 °C, 75–80% RH, 16 h light and 8 h dark alternatively) for 8 h. The test solution of the compound was then evenly sprayed on these leaves, which were then cultivated in the greenhouse for 72 h. In the blank control group, Tween 80 (1%) was used instead of the treatment solution. Cyetpyrafen (CAS NO. 1253429-01-4) was used as a positive control. Each treatment was repeated three times. The dead insects were recorded under a stereoscope, and the corrected mortalities of mites treated with the compounds were calculated.

[2] = biological target: T1, AChE (Electrophorus electricus, UniProt O42275); test: In vitro AChE inhibition (ELISA kit); type: biochemical, electric eels
T1 construct: purchased Sigma–Aldrich Chemie GmbH (Buchs, Switzerland)
Experimental: The effects of the title compounds on the in vitro AChE activity were evaluated using ELISA technology. AChE derived from electric eels was purchased from Sigma–Aldrich Chemie GmbH (Buchs, Switzerland). Briefly, the AChE was preincubated with different concentrations (500, 250, 125, 62.5, 31.25, 15.625, and 7.8125 μg/mL) of the compounds in PBS solution. Then, the AChE activities after incubation were measured using the corresponding ELISA kit according to the manufacturer’s instructions (Jiancheng, Nanjing, China). The detection was performed using a multifunctional microplate reader (SpectraMax® M2e, Thermo Scientific, Waltham, MA, USA).

[3] = Toxicity to brine shrimp Artemia; type: in vivo, Artemia salina; conditions: Artemia salina (brine shrimp), in vivo, other: immersion in test solution
Experimental: The toxicity of the title compounds to the brine shrimp A. salina was evaluated according to the reported method. […] Subsequently, approximately 50 hatched (10 h instar) brine shrimp were transferred into each pore of a 24-well plate filled with the test solutions. Finally, the brine shrimp were reared in an illumination incubator (28 ± 1 °C, 12 h light and 12 h dark alternatively) for 24 h. DMSO—1% Tween 20 was used as a blank control. Each treatment was conducted in triplicate. The dead insects were recorded under a stereoscope, and the corrected mortalities of A. salina treated with the compounds were calculated.

[4] = Table S1, read-out: Acaricidal activity LC50
[5] = read-out: Lethal activity to Artemia LC50
[6] = 12 h, read-out: Lethal activity to Artemia LC50

T1 sequence (O42275 24-633): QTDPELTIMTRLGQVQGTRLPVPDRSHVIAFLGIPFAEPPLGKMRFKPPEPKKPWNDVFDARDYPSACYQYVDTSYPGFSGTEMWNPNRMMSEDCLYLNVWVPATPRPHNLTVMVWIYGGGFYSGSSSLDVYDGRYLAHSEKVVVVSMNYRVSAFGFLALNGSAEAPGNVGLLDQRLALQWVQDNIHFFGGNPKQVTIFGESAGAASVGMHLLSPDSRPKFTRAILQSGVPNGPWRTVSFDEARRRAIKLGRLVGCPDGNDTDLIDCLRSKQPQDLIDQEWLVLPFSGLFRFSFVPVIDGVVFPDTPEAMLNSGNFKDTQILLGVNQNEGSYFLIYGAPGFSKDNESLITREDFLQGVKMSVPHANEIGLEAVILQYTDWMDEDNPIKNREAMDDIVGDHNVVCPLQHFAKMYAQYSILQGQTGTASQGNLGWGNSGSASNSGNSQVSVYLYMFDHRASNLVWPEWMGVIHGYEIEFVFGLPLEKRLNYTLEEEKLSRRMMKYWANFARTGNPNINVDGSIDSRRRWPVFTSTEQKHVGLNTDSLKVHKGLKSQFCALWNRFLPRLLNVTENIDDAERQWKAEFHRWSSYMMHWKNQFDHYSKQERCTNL

| Structure (SMILES) | LC50 [1, 4] [µg/mL] | IC50 [2] [µM] | LC50 at 6 h [3, 5] [µg/mL] | LC50 at 12 h [3, 6] [µg/mL] | LC50 ([1]; main text and Figure 5, read-out: LC50 against T. cinnabarinus) [µg/mL] | LC50 at 12 h ([3]; abstract (equals the 12 h value), read-out: LC50 against A. salina) [µg/mL] | acaricidal toxicity relative to compound 5 [1] |
| --- | --- | --- | --- | --- | --- | --- | --- |
| COc1cc2ccc(=O)oc2cc1OS(=O)(=O)c1cccs1 [Compound 4i] | 489 (≈ 1450 µM) | 432 | 76.5 (≈ 226 µM) | 45.1 (≈ 133 µM) |  |  |  |
| COc1cc2ccc(=O)oc2cc1OS(=O)(=O)c1ccc([N+](=O)[O-])cc1 [Compound 4g] | 183 (≈ 485 µM) | 353 | 46.7 (≈ 124 µM) | 25.6 (≈ 67.8 µM) |  |  |  |
| COc1cc2cc(C(C)=O)c(=O)oc2cc1OS(=O)(=O)c1cc(Cl)c(Cl)cc1Cl [Compound 6h] | 107 (≈ 224 µM) | 275 | 48.5 (≈ 102 µM) | 33.9 (≈ 71 µM) |  |  |  |
| COc1cc2ccc(=O)oc2cc1OS(=O)(=O)c1ccc2ccccc2c1 [Compound 4j] |  | 148 | 13.6 (≈ 35.6 µM) |  | 93 (≈ 243 µM) | 9.36 (≈ 24.5 µM) |  |
| COc1ccc(S(=O)(=O)Oc2cc3oc(=O)ccc3cc2OC)cc1 [Compound 4b] | 209 (≈ 577 µM) | 304 | 38.6 (≈ 107 µM) | 18.2 (≈ 50.2 µM) |  |  |  |
| COc1ccc(S(=O)(=O)Oc2cc3oc(=O)c(-c4ccc(F)cc4)cc3cc2OC)cc1 [Compound 5b] | 338 (≈ 741 µM) | 336 | 94.5 (≈ 207 µM) | 36.2 (≈ 79.3 µM) |  |  |  |
| COc1cc2cc(C(C)=O)c(=O)oc2cc1OS(=O)(=O)c1ccc(Cl)cc1 [Compound 6d] | 159 (≈ 389 µM) | 355 | 45.5 (≈ 111 µM) | 27.9 (≈ 68.2 µM) |  |  |  |
| COc1cc2ccc(=O)oc2cc1OS(=O)(=O)c1ccc(Br)cc1 [Compound 4e] | 636 (≈ 1550 µM) | 343 | 157 (≈ 382 µM) | 89.8 (≈ 218 µM) |  |  |  |
| COc1cc2cc(C(=O)Nc3ccc(Br)cc3)c(=O)oc2cc1OS(=O)(=O)c1ccccc1 [Compound 7a] | 117 (≈ 221 µM) | 221 | 57.6 (≈ 109 µM) | 33.6 (≈ 63.4 µM) |  |  |  |
| COc1cc2cc(-c3ccc(F)cc3)c(=O)oc2cc1OS(=O)(=O)c1ccc(Br)cc1 [Compound 5e] | 80 (≈ 158 µM) | 141 | 114 (≈ 226 µM) | 79.5 (≈ 157 µM) |  |  |  |
| COc1cc2cc(-c3ccc(F)cc3)c(=O)oc2cc1OS(=O)(=O)c1ccc([N+](=O)[O-])cc1 [Compound 5g] | 68 (≈ 144 µM) | 261 | 86.6 (≈ 184 µM) | 53.6 (≈ 114 µM) |  |  | approximately 2 times |
| COc1cc2ccc(=O)oc2cc1OS(=O)(=O)c1ccc(Cl)cc1 [Compound 4d] | 529 (≈ 1440 µM) | 222 | 33.6 (≈ 91.6 µM) | 16 (≈ 43.6 µM) |  |  |  |
| COc1cc2cc(-c3ccc(F)cc3)c(=O)oc2cc1OS(=O)(=O)c1ccc(C(F)(F)F)cc1 [Compound 5f] | 104 (≈ 210 µM) | 242 | 71.5 (≈ 145 µM) | 39.9 (≈ 80.7 µM) |  |  |  |
| COc1cc2cc(-c3ccc(F)cc3)c(=O)oc2cc1OS(=O)(=O)c1cccs1 [Compound 5i] | 73 (≈ 169 µM) | 255 | 99.8 (≈ 231 µM) | 56.7 (≈ 131 µM) |  |  | approximately 2 times |
